Measured values from PubChem BioAssay (NCI).
Where “and” joins values, the source holds several entries; their conditions need not be identical. Identical values can stand only once.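 These data come from cells grown in 96-well plates and exposed to compound for 48 hours at five concentrations. At the GI50, growth is halved. Definition used: TGI = concentration required for complete inhibition of growth.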

Key:
Assay in all cases: inhibition of tumour cell growth, NCI panel, 48 h
[1] = system: KM12 colon
[2] = system: CAKI-1 renal
[3] = system: OVCAR-5 ovarian
[4] = system: SNB-19 CNS
[5] = system: ACHN renal
[6] = system: SNB-75 CNS
[7] = system: RXF 393 renal
[8] = system: UACC-62 melanoma
[9] = system: UO-31 renal
[10] = system: MDA-MB-231 breast

SMILES | TGI [1] | TGI [2] | TGI [3] | TGI [4] [µM] | TGI [5] | TGI [6] | TGI [7] | TGI [8] [µM] | TGI [9] | TGI [10] | GI50 [2] | GI50 [3] | GI50 [4] | GI50 [5] | GI50 [10] | GI50 [7] | GI50 [9] | GI50 [1] [µM] | GI50 [8] [µM] | GI50 [6] [µM]
CCOc1ccccc1NC(=O)CCC(=O)OC | > 100 µM | > 100 µM | > 100 µM | > 100 | > 100 µM | > 100 µM | > 100 µM | > 100 | > 100 µM |  |  |  |  |  |  |  |  |  |  | 
N#Cc1cc(C#N)c(Cl)nc1N | > 10 µM |  |  | > 10 | > 10 µM | > 10 µM | > 10 µM | > 10 | > 10 µM |  |  |  |  |  |  |  |  |  |  | 
N#C/C(=C\c1ccccc1O)C(N)=O | > 100 µM | > 100 µM | > 100 µM | > 100 | > 100 µM | 69.7 µM | 87.5 µM | > 100 | > 100 µM |  |  |  |  |  |  |  |  |  |  | 
CN(C)c1ccc2c(c1)C(=O)N(OS(=O)(=O)c1ccc([N+](=O)[O-])cc1)C2=O | 75.5 µM | 54.2 µM | 57.6 µM | > 100 | 59.9 µM | > 100 µM | 28.1 µM | 31.8 | 60.9 µM |  |  |  |  |  |  |  |  |  |  | 
O=C(c1ccc2ccccc2c1O)N1CCCCC1 | > 100 µM | > 100 µM |  | > 100 | > 100 µM | > 100 µM | > 100 µM | > 100 | > 100 µM | > 100 µM |  |  |  |  |  |  |  |  |  | 
Cc1ccc(C)c(NC(=O)C(=O)CC(=O)C2CCOC2=O)c1 (configuration not stated) | > 100 µM | > 100 µM | > 100 µM | > 100 | > 100 µM | > 100 µM | > 100 µM | > 100 | > 100 µM |  |  |  |  |  |  |  |  |  |  | 
Nc1nc(CCC(=O)Nc2cccc(C(F)(F)F)c2)cc(-c2cccc3ccccc23)n1 | > 100 µM | > 100 µM | > 100 µM | > 100 | > 100 µM | > 100 µM | > 100 µM | > 100 | > 100 µM |  |  |  |  |  |  |  |  |  |  | 
CN1CCc2cc3c(cc2C1O)OCO3 (configuration not stated) | 22.5 µM and > 100 µM | 30.6 µM and > 100 µM | 33.3 µM and > 100 µM | > 100 | 36.2 µM and > 100 µM | 17.9 µM and > 100 µM | 35.2 µM and > 100 µM |  | 37.4 µM and > 100 µM | 35 µM and > 100 µM | 14.8 µM and > 100 µM | 19 µM and > 100 µM | 34.6 µM and > 100 µM | 19.2 µM and > 100 µM | 17.6 µM and > 100 µM | 17.9 µM and > 100 µM | 17.4 µM and > 100 µM |  |  | 
O=C(Nc1ccc(Cl)cc1Cl)c1ccc(NC2=C(Cl)C(=O)N(Cc3ccccc3)C2=O)cc1 | 64.4 µM | 63.5 µM |  | 31.9 | 33.7 µM |  | 38.8 µM | 35.3 | > 100 µM | 31.2 µM | 26.4 µM |  | 17.9 µM | 18.9 µM | 17.4 µM | 17.6 µM | 3.56 µM | 21.1 | 18.6 | 
Cc1cccc(C(=O)c2cccc3ccccc23)c1C(=O)O |  |  | > 100 µM | > 100 | > 100 µM | > 100 µM | > 100 µM | > 100 | > 100 µM |  |  |  |  |  |  |  |  |  |  | 
CC1=C(C(=O)NCc2ccccc2)C(c2ccc(C3C(C(=O)NCc4ccccc4)=C(C)NC(C)=C3C(=O)NCc3ccccc3)cc2)C(C(=O)NCc2ccccc2)=C(C)N1 | 24.4 µM | 34.9 µM | 39.9 µM | 29.2 | 29.6 µM |  | 33.4 µM | 22.2 | 35.7 µM |  |  |  |  |  |  |  |  |  |  | 
CC(=O)N1CCN(C2=Nc3ccccc3CO2)C1=S | > 100 µM | > 100 µM | > 100 µM | > 100 | > 100 µM | > 100 µM |  | > 100 | > 100 µM | > 100 µM | > 100 µM | 85.8 µM | > 100 µM | > 100 µM | > 100 µM |  | > 100 µM | > 100 | 83 | 40.1
COC(=O)Cc1cc(OC)c(OC)cc1Br | > 100 µM | > 100 µM | > 100 µM | > 100 | > 100 µM | > 100 µM |  | > 100 | > 100 µM |  |  |  |  |  |  |  |  |  |  | 
O=C(O)c1ccccc1Cc1ccco1 | > 100 µM | > 100 µM | > 100 µM | > 100 | > 100 µM | > 100 µM | > 100 µM | > 100 | > 100 µM |  |  |  |  |  |  |  |  |  |  | 
O=C(CC1=Nc2nnc(-c3nnc4n3C(=O)C(CC(=O)c3cccnc3)=N4)n2C1=O)c1cccnc1 | > 100 µM | > 100 µM | > 100 µM | > 100 | > 100 µM | > 100 µM | > 100 µM | > 100 | > 100 µM |  |  |  |  |  |  |  |  |  |  | 
C#CCC[C@@H]1O[C@@]1(C)CC/C=C(\C)CC/C=C/C=O | > 100 µM |  | > 100 µM | > 100 | > 100 µM | > 100 µM | > 100 µM | 36.6 | > 100 µM |  |  |  |  |  |  |  |  |  |  | 
CC1CC2C3CC(F)C4=CC(=O)C=CC4(C)C3(F)C(O)CC2(C)C1(O)C(=O)COC(=O)C(C)(C)C (configuration not stated) | > 100 µM | > 100 µM | > 100 µM | > 100 | > 100 µM | > 100 µM | 76.6 µM | > 100 | > 100 µM |  |  |  |  |  |  |  |  |  |  | 
CC1=CCC[C@@]2(C)C(CC[C@@H]2C(C)/C=C/C(C)C)c2ccc(cc2C(=O)O)C[C@@H](O)CC1 (some centres not stated) | 24.8 µM | 32.9 µM | 30 µM | 17.5 | 18.7 µM | 27.4 µM | 30 µM | 23 | 29.2 µM |  |  |  |  |  |  |  |  |  |  | 
O=C1c2ccccc2C2(O)Nc3cc(O)ccc3C12O (configuration not stated) | > 100 µM | > 100 µM | > 100 µM | > 100 | > 100 µM | > 100 µM | > 100 µM | > 100 |  |  |  |  |  |  |  |  |  |  |  | 
CC(C)=CCN=C(N)N | > 100 µM | > 100 µM |  | > 100 | > 100 µM |  | > 100 µM | > 100 | > 100 µM | > 100 µM |  |  |  |  |  |  |  |  |  | 
CC(C)(C)OC(=O)NCCNC1=CC(=O)c2nc3ccccc3c3ccnc1c23 | 66.6 µM | 72.3 µM | 86.1 µM | 83.7 | 76.8 µM | 42.6 µM |  | 43.2 | > 100 µM | 58.6 µM | 28.4 µM | 28 µM | 22.7 µM | 21.5 µM | 18.4 µM |  | 28.8 µM | 22.7 | 19.6 | 17.8
